The values that follow come from a melting point compilation (Tetko et al.; mined from patent text by program, amines drawn as free bases though some values may be those of a salt).

What is called melting point is the temperature, or range, at which the solid turns liquid.

With `CCOC(=O)N1CCN(c2ccc(-n3cnn(C(CC)C(=O)c4ccc(Cl)cc4)c3=O)cn2)CC1` (centres undefined), the melting point turned out to be 139 °C. With `CCOC(=O)Cn1c(C(=O)OCC)c(O)c(O)c1C(=O)OCC`, the melting point fell in the range of 121 to 122 °C.

With `O=C1COCCN1c1ccc(N2C[C@@H](CCl)OC2=O)cc1`, the melting point was in the range of 143 to 146 °C. Regarding `O=C(OCc1ccccc1)N1CCc2ccccc2C12CCC(C(=O)O)(C(=O)O)CC2`, the melting point fell in the range of 199 to 200 °C. Consider `COc1ccccc1NC(=O)Nc1ncnc(Nc2ccccc2-c2ccccc2)n1`, for which the melting point was 219 °C.

`Cc1c(F)cc2[nH]c(=O)c(=O)[nH]c2c1[N+](=O)[O-]`: the melting point was in the range of 308 to 311 °C.

On to `CN1CCN(CCNc2ncnc3c2sc2nc(N4CCCC4)c4c(c23)CC(C)(C)OC4)CC1`, for which the melting point lay within 97.5 to 98.8 °C.

Compound `CCOC(=O)c1cn(-c2cc(N)c(F)cc2F)c2cc(F)c(F)cc2c1=O` yielded a melting point of 198 to 205 °C. The same measure for `CCSC1(S)CCC2C3CCC4=CC(=O)C=CC4(C)C3(F)C(O)CC21C` (centres undefined): 239 to 242 °C; for `Cc1nc(C)c(CSC(=O)c2ccccc2)c(O)c1O`: 174 to 177 °C; for `CN(C)CCCOc1cccc(N(C(=O)c2ccccc2)c2ccccc2)c1`: 77 to 81 °C. As to `C=CCNC(=O)N1CC(OCc2cccc(C(F)(F)F)c2)C1`, the melting point is 108 °C. The compound `O=C(CC(C(=O)O)c1ccccc1)Nc1cccc(/C=C/c2nc(C3CCC3)cs2)c1` (centres undefined) had a melting point of 202 to 203 °C. The same measure for `O=CC(=Cc1ccc(Cl)cc1)C(C=O)=Cc1ccc(Cl)cc1`: 172 to 173 °C. As for `COC(=O)Nc1nc2cnc3cccnc3c2n1CC(C)C`, the melting point fell in the range of 195 to 197 °C. Compound `CC1=NC(NC(=O)Nc2cccc(C)c2)C(=O)N(CC(=O)N2CCN(CCO)CC2)c2c(C)cccc21` (centres undefined) gave a melting point of 222 to 224 °C. To `COC(=O)c1cc(OCc2cn(-c3ccc(C(F)(F)F)cn3)nc2C(C)C)nn1C` belongs 114 to 115 °C; to `CCOC(=O)CSc1nnsc1-c1ccc(C(C)(C)C)cc1`, 62.5 to 63.5 °C; to `CC(=NO)c1nccc(OCC(F)(F)F)n1`, 179 to 181 °C.

The compound `COc1cc2c(c(Cl)c1Cl)C(=O)C(C)(C)C2` returned a melting point of 142 °C. The same measure for `CC(C)Cn1nc(O)nc1Cl`: 84 to 86 °C; for `COC(=O)C1=C(C)NC(C)=C(C(=O)OC)C1C1CCC(C(=O)O)C1` (centres undefined): 177 to 179 °C; for `N[C@@H](Cc1ccc(C(F)(F)F)cc1)[C@H](O)c1ccoc1` (racemic): 91 to 92 °C. To `COc1ccc2c(c1)C(C)N(C)C(=O)C2c1cc(OC)c(OC)c(OC)c1` (centres undefined) belongs 135 to 140 °C. The same measure for `CCOC(=O)C(=O)N(CCN=[N+]=[N-])N=Cc1ccccc1`: 59 to 61 °C; for `COC(=O)c1ccc2c(c1C)SCCC2(C)C`: 63 °C; for `OC1(CNCc2ccccn2)CCN(CCCc2c[nH]c3ccc(-n4cnnc4)cc23)CC1`: greater than 55 °C. For the compound `Cc1ccc(OCCOCCCCCCNCc2c(CO)ccc(O)c2CO)cc1C`, the melting point was 65 to 68 °C. The same measure for `Nc1n[nH]c2c(F)cccc12`: 170 °C; for `CCOc1ccc(-c2ccc(C3COC(c4c(Cl)cncc4Cl)=N3)cc2)cc1` (centres undefined): 121 to 122 °C. Compound `COc1cc2ncnc(N3CCN(C(=O)Nc4ccc(N)cc4)CC3)c2cc1OC` had a melting point of 215 to 217 °C.

For `CC(C)c1c(C(=O)Nc2ccccc2)c(-c2ccccc2)c(-c2ccc(F)cc2)n1CC[C@H]1C[C@H](O)CC(=O)O1` (relative stereo), the melting point was in the range of 90 to 97 °C. The same measure for `CCOc1cc2c(Nc3ccc(Sc4nccn4C)c(Cl)c3)c(C#N)cnc2cc1N1CCC(N2CCCC2)CC1`: 203 to 207 °C; for `COc1cc(Cc2cnc(N)nc2N)c2ccccc2c1OC`: 228 to 230 °C; for `Cc1c2c(nc3ccccc13)CCN(C(=O)C(C)C)CC2`: 107 °C.

Regarding `Cn1nc(-c2ccc(S(=O)(=O)N3CCn4c(c(C(N)=O)c(Cl)c4-c4ccccc4)C3)s2)cc1C(F)(F)F`, the melting point was 159 to 161 °C.

`CN(CCCCCNC(=O)NCCCOc1cccc(CN2CCCCC2)c1)CCN(Cc1ccc(F)cc1)c1ccccn1` registered a melting point of 63 °C. To `CC(CCC(=O)NCCS(=O)(=O)O)C1CCC2C3C(O)CC4CC(NC(=O)CNC(=O)OC(C)(C)C)CCC4(C)C3CC(O)C12C` (centres undefined) belongs 150 to 155 °C; to `O=C(c1cccc2nc3n(c12)CCCN3c1ccc(Cl)cc1Cl)N1CC(O)C1`, 257 to 258 °C. To `CCOC(=O)c1c(C)nc2c(cnn2CCCC#N)c1OCC` belongs 99 °C. In turn, `CC(C)C(C)(C#N)N1C(=O)c2ccc3c(ccn3C)c2C1=O` (centres undefined) returned a melting point of 123 to 128 °C.

`Cc1nc(N)c2nc(C)n(CCCNC(=O)N3CCOCC3)c2c1C` yielded a melting point of 129 to 130 °C. The same measure for `COc1cc2ncnc(Nc3ccc4ccccc4n3)c2cc1OC`: 215 to 216 °C. Take `CCOC(=O)Cn1c2cccccc-2c(C(N)=O)c1=O`: the melting point was 215 to 220 °C.

In turn, `Cc1c(-c2ccccc2)oc2c(CNC(=O)CCl)cccc2c1=O` gave a melting point of 152 to 155 °C. `Nc1ccc2c(c1)CC(=O)c1ccccc1O2`: the melting point is 116 to 117 °C.

The compound `Nc1c(F)c(F)c(OC(F)F)c2c1c(=O)c(C(=O)O)cn2C1CC1` registered a melting point of 284 to 286 °C. The compound `COc1ccc(-c2ncsc2-c2ccc(OC)cc2)cc1` returned a melting point of 98 to 99 °C. To `N#Cc1ccn(-c2ccc([N+](=O)[O-])cc2F)c1` belongs 117 to 119 °C; to `Oc1c(CN2CCOCC2)ncc2c1COC2c1ccccc1` (centres undefined), 172 °C. The same measure for `CN(C)c1ccc(C(O)C#Cc2ccc(C(=O)O)cc2)cc1C(C)(C)C` (centres undefined): 139 °C; for `CN(C)C(=O)c1ccc(C(C)(C)C)c(N)c1`: 186 to 188 °C; for `CC1(C)C(=O)Oc2ccc3cc(C(=O)NCC(F)(F)F)c(Cn4cncn4)cc3c21`: 200 to 201 °C.

Compound `COC(=O)N1CCC(C(C#N)(c2ccccc2)c2ccccc2)C1` (centres undefined) showed a melting point of 133 to 135 °C. For the compound `CCOC(=O)c1cc(Cl)c2[nH]ncc2n1`, the melting point is 276 to 279 °C. To `COc1cc(NS(=O)(=O)CCCCl)cc(OC)c1` belongs 68 to 71 °C; to `CCCCCCCCOc1ccc(-c2ccc(OC(F)F)cc2)cc1`, 104 °C. To `Cc1cccc2c(=O)n(CCCN3CC=C(c4ccc(Cl)cc4)CC3)c(=O)[nH]c12` belongs 215 to 217 °C.

`Cc1cn2c(C)nc3c(C)nn(C)c3c2n1` showed a melting point of 198 to 200 °C.

Turning to `COc1cccc(-c2ccccc2)c1C(O)=S`, the melting point lay within 97 to 98 °C. The same measure for `CCOC(=O)C1=Cc2cc(-c3ccc(C)cc3)ccc2SC1`: 87 °C; for `Cc1c(N2CCCCC2)ccnc1CSc1nc2cc(N3CCCCC3)c(F)cc2[nH]1`: 161 to 162 °C; for `COc1nc(Cl)cnc1NC(=O)OCC(C)C`: 90 to 91 °C. Take `O=C1C2CCCCC2C(=O)N1c1ccc(Br)cc1F` (centres undefined): the melting point was in the range of 90 to 92 °C. For the compound `COc1ccc(-c2ccc(C(=O)Nc3ccc4cc(CN5CCCC5)cnc4c3C)cn2)cc1`, the melting point lay within 180 to 182 °C. In turn, `O=c1nc(N2CCC=C(c3ccccc3)C2)sc2ncccc12` displayed a melting point of 167 to 169 °C. To `CCCCCCN1C(=O)c2cscc2Nc2ccccc21` belongs 100 to 102 °C; to `Cn1cc2c(n1)Nc1ccc(F)cc1N=C2N1CCN(CC2CC2)CC1`, 188 to 189 °C; to `CC(C)NCC(O)COc1ccccc1C1=NN(C)C(=O)CC1` (centres undefined), 82 to 84 °C. To `O=C(O)c1cnn2c(C(F)(F)F)cc(-c3ccc(C(F)(F)F)c(OCC(F)(F)F)c3)nc12` belongs 264 °C; to `CC(=O)NC[C@H]1CN(c2ccc(N3CCC(O)(CNC4CC4)CC3)c(F)c2)C(=O)O1`, 160 to 162 °C. The same measure for `CCN1CCC(c2n[nH]c3cc(F)ccc23)CC1`: 175 to 178 °C. Regarding `CC(=O)Nc1nc2c(Oc3cc(-c4ccc(C(F)(F)F)cc4Cl)ncn3)cccc2s1`, the melting point fell in the range of 263 to 264 °C. `Cc1ccc(S(=O)(=O)c2ccc(C)cc2CC(Cl)(Cl)C#N)c(CC(Cl)(Cl)C#N)c1` showed a melting point of 71 to 72 °C.

On to `CCOc1ccc(NC=C(C(=O)Nc2ccccc2)c2cc(C)no2)cc1`, for which the melting point fell in the range of 114 to 115 °C. The same measure for `CCOC(=O)c1c[nH]c(=S)n1C1CCc2c(F)cc(F)cc2C1` (centres undefined): 159 to 161 °C; for `COC(=O)c1ccc(OCC2COC(=O)N2c2ccc(Cl)cc2)cc1` (centres undefined): 135 to 136 °C; for `COc1ccc(-c2cncc(C#N)c2Oc2ccc3[nH]ccc3c2)cc1OC`: 192 to 194 °C. `Oc1ccc(-c2ccc(OC(F)(F)F)cc2)cc1` came in with a melting point of 140 °C. `COc1cc(-c2ccc(N(C)CCN(C)c3ccc(-c4cc(OC)c(N5CCCC5)c(OC)c4)nc3)cn2)cc(OC)c1N1CCCC1` came in with a melting point of 221 to 225 °C. Take `O=C(O)Cc1c(C(=O)c2ccc(-c3ccccc3)cc2)[nH]c2cc(Cl)ccc12`: the melting point was 228 to 231 °C. In turn, `Cc1cccc(NN)n1` registered a melting point of 54 to 56 °C. `CCOC(=O)C1CCN2C(=O)C(=O)c3cc(Br)cc1c32` (centres undefined) gave a melting point of 150 to 151 °C. On to `CCOC(=O)c1nc2ccc(OC)cc2n(C)c1=O`, for which the melting point was determined as 166 °C. Consider `Cc1[nH]c(-c2ccccc2)nc1C(=O)C=CN(C)C`, for which the melting point was 218 to 222 °C. `CNC(=O)C(Cc1ccc(OC)cc1)NC(=O)C(CC(C)C)C(S)CC(=O)OC` (centres undefined) returned a melting point of 80 to 86 °C. Take `CCCCc1nc(SC)c(C(=O)O)n1Cc1ccc(-c2ccccc2C(=O)O)cc1`: the melting point was found to be 220 °C.

`CC(=O)NCc1ccc(CCN2CCC(n3ccc4ccccc43)CC2)cc1`: the melting point is 133 to 134 °C. In turn, `Cc1nc(-c2ccccc2)nc(N2CCCC2C(=O)N2CC(C)NC(C)C2)c1C` (centres undefined) came in with a melting point of 160 to 162 °C.
